Test results taken from patent publication US20240148780A1, “COMPOSITION AND USE OF AN OPHTHALMIC SOLUTION BASED ON HYALURONIC ACID AND ARABINOGALACTAN” (MD ITALY SRL, priority 2019, published 2024).

How the values were obtained:
[1] = system: isolated hepatocytes and microsomal fractions from rat liver; conditions: compared with an equivalent amount of directly-added free alpha-tocopherol; cited from earlier work
[2] = molecular target: T1, xanthine oxidase (Homo sapiens, UniProt P47989); assay: Xanthine oxidase (XOD) reaction inhibition: formation of uric acid; format: biochemical
T1 sequence (P47989 whole entry, species assumed): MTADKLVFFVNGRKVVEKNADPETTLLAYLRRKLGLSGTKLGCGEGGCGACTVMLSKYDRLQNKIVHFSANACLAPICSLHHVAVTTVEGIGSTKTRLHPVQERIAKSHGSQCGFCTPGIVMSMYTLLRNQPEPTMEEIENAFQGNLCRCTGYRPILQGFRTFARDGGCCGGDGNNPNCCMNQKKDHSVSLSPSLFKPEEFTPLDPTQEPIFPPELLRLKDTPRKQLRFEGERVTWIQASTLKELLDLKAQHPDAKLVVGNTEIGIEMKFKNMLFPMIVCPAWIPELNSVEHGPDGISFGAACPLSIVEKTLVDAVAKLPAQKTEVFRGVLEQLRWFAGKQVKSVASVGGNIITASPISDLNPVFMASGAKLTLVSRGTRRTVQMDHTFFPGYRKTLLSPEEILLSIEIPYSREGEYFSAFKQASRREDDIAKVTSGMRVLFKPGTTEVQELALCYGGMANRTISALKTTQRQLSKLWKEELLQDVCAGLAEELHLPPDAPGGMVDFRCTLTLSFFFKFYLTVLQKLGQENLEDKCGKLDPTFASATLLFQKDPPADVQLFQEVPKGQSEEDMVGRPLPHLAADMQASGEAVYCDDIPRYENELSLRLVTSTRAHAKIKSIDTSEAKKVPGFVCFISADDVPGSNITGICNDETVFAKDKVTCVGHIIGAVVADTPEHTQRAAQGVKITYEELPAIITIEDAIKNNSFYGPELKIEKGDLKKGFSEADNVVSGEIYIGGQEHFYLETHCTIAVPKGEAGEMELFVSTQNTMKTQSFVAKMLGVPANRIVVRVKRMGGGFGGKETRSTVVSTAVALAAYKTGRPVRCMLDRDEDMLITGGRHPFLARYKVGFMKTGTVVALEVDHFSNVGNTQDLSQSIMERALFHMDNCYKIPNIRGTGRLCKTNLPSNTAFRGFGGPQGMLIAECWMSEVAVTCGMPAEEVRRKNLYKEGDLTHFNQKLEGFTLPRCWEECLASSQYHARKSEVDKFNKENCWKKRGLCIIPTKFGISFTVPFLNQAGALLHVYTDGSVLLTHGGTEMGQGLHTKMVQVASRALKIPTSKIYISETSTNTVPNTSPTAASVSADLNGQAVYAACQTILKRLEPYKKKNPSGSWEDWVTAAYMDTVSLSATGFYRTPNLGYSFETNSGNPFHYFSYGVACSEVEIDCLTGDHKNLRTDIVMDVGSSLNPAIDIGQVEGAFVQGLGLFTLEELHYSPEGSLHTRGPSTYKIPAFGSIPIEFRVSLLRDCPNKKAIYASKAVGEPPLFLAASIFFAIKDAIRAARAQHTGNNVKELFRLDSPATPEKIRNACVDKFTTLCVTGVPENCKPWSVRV
Procedure: The effect of arabinogalactan, hyaluronic acid and the association thereof was investigated by monitoring the formation of uric acid over time (0, 1, 5, 10, 15, 30 min). Uric acid concentration was determined at 291 nm using a DR6000 UV spectrophotometer (Hach, Lange). The absorbance value is related to the concentration by means of the Lambert-Beer law:
where A is the absorbance of uric acid at 291 nm, ε is the molar absorption coefficient, b is the optical path (thickness of the cuvette in which the solution is contained) and C is the uric acid concentration.
The blank/control consists of: 50 μM xanthine, 10 mg L^−1 of xanthine oxidase (XO) (0.00016 μUI of enzyme) in borate buffer solution (see table 3) 7.2≤pH≤7.8). The effect of the components of the eye drops was investigated by adding the individual components to the blank solution: respectively • (i) 0.4% (w/w) of arabinogalactan (AG) • (ii) 0.15% (w/w) of hyaluronic acid (HA) • (iii) association of 0.4% (w/w) of AG+0.15% (w/w) of HA (mix AG+HA). • (iii) Eye drops corresponding to the formulation of Tab.3.
All the tests were conducted at least in triplicate.
The uric acid formation reductions were calculated as: […]
where C30-(i) is the final concentration (30 min) of uric acid in the i-th test and C30-control is the uric acid concentration at 30 min in the blank (control).
Furthermore, the inhibition evaluation reported above was also carried out in borate buffer for arabinogalactan, for hyaluronic acid and for the association thereof, and finally for the eye drops formulation of the present invention, also comprising panthenol, vitamin E-TGPS and trehalose.

[3] = molecular target: T1, xanthine oxidase; assay: Superoxide anion production by xanthine oxidase, detected by ferrocytochrome C reduction; format: biochemical; conditions: xanthine oxidase reaction
Excerpt: Any inhibition is particularly important because the superoxide anion production is at the origin, at least in part, of the inflammatory phenomena of the ocular surface. The superoxide anion produced by xanthine oxidase in the oxidation reaction of xanthine was detected by the reduction of […] to […] by the same superoxide anion (O2^−·) (Fridovich). The reaction is reported here for clarity:
Fe^3+Cit.C+Superoxide Anion-----→Fe^2+Cit.C
The effect of arabinogalactan, hyaluronic acid, and the association thereof on superoxide anion production over time (0, 1, 5, 10, 15, 30 min) was investigated. The production of superoxide anion was determined by the reduction of ferrocytochrome C (3+) to ferrocytochrome C (2+), monitoring absorption at 551 nm using a DR6000 UV spectrophotometer (Hach, Lange). The tests for the determination of superoxide anion production were carried out still using the xanthine oxidase reaction used previously.
Produced by the superoxide anion, the ferrocytochrome C was calculated considering a molar absorption equal to 2.1×10^4 M^−1·cm^−1 (Ref. 16-17). The superoxide inhibition evaluation reported above was performed for arabinogalactan, hyaluronic acid, and the association thereof. Furthermore, the eye drops formulation of the present invention was also evaluated, also comprising panthenol, vitamin E-TGPS and trehalose.

[4] = Rheology, plate viscometer in oscillation mode (G″, G′); format: physicochemical; conditions: HA 0.15% w/w, AG 0.4% w/w
Procedure: In addition to the evaluation of the effect of arabinogalactan, hyaluronic acid and the association thereof on xanthine oxidase activity and in order to characterize the possible interaction thereof, to justify the inhibitory effect thereof, rheology measurements were carried out with the hypothesis that the two macrostructures, arabinogalactan on the one hand and hyaluronic acid on the other, could modify the rheological trend of the formulation of the present invention.
With reference to FIG. 3, the characterization of the following solutions was carried out using an AM Instruments Plate Viscometer, in Oscillation Mode. The following solutions were measured: • Sample 1: Hyaluronic acid solution at 0.15% w/w • Sample 2: Arabinogalactan solution 0.4% +Hyaluronic acid 0.15% w/v • Sample 3: Arabinogalactan solution 0.4% w/w.
1: Hyaluronic acid 0.15% w/w • Solution no. 2: Arabinogalactan 0.4%+hyaluronic acid 0.15% w/w • Solution no. 3: Arabinogalactan 0.4% w/w • Interpretation of the Results: […]

[5] = Viscosity as a function of shear rate, plate viscometer; format: physicochemical
Procedure: Given the results obtained, the characterization was further extended to determine the viscosity as a function of the shear rate, always using a Plate Viscometer, in particular the following solutions were measured. • Sample 1: Hyaluronic acid • Sample 2: Hyaluronic acid+Arabinogalactan • Sample 3: Eye drops A • Sample 4: Arabinogalactan
The description of the graph can be further exemplified by the following table which reports the viscosity values (mPa·s$) at 10[1/s] at a fixed point corresponding to A.

Molecule: Cc1c(C)c2c(c(C)c1OC(=O)CCC(=O)O)CC[C@@](C)(CCC[C@H](C)CCC[C@H](C)CCCC(C)C)O2 [TS, alpha-tocopherol succinate, reference compound]
- Antioxidant protection [1]: more effective antioxidant protection than an equivalent amount of directly-added free alpha-tocopherol

Molecule: Hyaluronic acid
- Uric acid μM produced in 30 minutes ([2]; 50 μM xanthine, 10 mg L−1 xanthine oxidase, borate buffer, AG 0.4% w/w, HA 0.15% w/w, 30 min): 15.3 µM
- Inhibition % of uric acid production ([2]; 50 μM xanthine, 10 mg L−1 xanthine oxidase, borate buffer, AG 0.4% w/w, HA 0.15% w/w, 30 min vs blank): 0%
- Uric acid μM produced per minute ([2]; per minute, same reaction, linear kinetics assumed): 0.51 µM
- Fe+2 Cit.C μM produced per minute ([3]; per minute): 0.42 µM
- Fe+2 Cit.C μM produced in 30 minutes ([3]; 551 nm, 30 min): 12.6 µM
- Inhibition % of Fe+2 Cit.C production (superoxide anion) ([3]; 551 nm, 30 min vs control): 17.2%
- Trend of G″ (Loss Modulus Viscosity) [4]: always with a value higher than the other measured solutions
- Viscosity trend as a function of shear rate ([5]; FIG. 4): linear trend (Newtonian) higher viscosity
- Viscosity ([5]; at 10 [1/s], fixed point): 1.50 mPa·s

Molecule: alpha-tocopherol polyethylene glycol 1000 succinate [TPGS]
- Antioxidant protection [1]: more effective antioxidant protection than an equivalent amount of directly-added free alpha-tocopherol
